{
  "source": "paper PMC4448986",
  "about": "(Pharmacology Research & Perspectives, 2015)",
  "key": {"PK analysis in rats": {"assay": "PK analysis in rats", "assay_type": "in vivo", "conditions": "male, Sprague-Dawley, rat, plasma, po, 100 mg/kg"}, "[1]": {"assay": "Water solubility by UV-vis", "conditions": "deionized water, 20 °C, thermodynamic from solid"}},
  "data": [
    {"molecule": "C=C(c1ccc(C(=O)O)cc1)c1cc2c(cc1C)C(C)(C)CCC2(C)C", "note": "[Compound 1, bexarotene]", "values": [
      {"measurement": "AUC", "setting": "PK analysis in rats", "result": 51500, "unit": "ng·h/mL"},
      {"measurement": "AUC(0-inf)", "setting": "PK analysis in rats", "result": 54300, "unit": "ng·h/mL"},
      {"measurement": "AUC(0-t)", "setting": "PK analysis in rats", "result": 51500, "unit": "ng·h/mL"},
      {"measurement": "Tmax", "setting": "PK analysis in rats", "result": 2, "unit": "h"},
      {"measurement": "solubility at 24 h", "setting": "[1]", "result": "0.28 ± 0.02", "unit": "µM"}
    ]}
  ]
}
